{"source": "patent US10806121B2", "about": "“Animal litter containing a pheromone composition” (Sergeant's Pet Care Products, LLC, priority 2014, dated 2020)", "key": {"cats [1]": {"tested_on": "cats", "assay": "Study 1: cat litter preference, pheromone-treated litter versus control litter", "assay_type": "in vivo", "protocol": "In Study 1, four different treatments were tested: Androstenone (ANDRO); cat urinary pheromone, 3-mercapto-3-methyl-1-butanol (CAT); rabbit pheromone, 2-methylbut-2-enal (RP); and both the cat urinary pheromone and the rabbit pheromone (CAT+RP). 40 individual cats were used in this study to assess their preference to or aversion from a control litter versus a litter under one of the four treatments. Each treatment was tested with 10 cats. Litter was divided into 3 lb aliquots, and each aliquot was either used as a control or was mixed with a pheromone (or a pheromone combination) to be tested at a level of 10 μg/3-lb (or 7.3 μg/kg).\nOn Day 0, each cat was placed into an assigned chamber randomly placed with two litter boxes, one control and one treated. Each of the two litter boxes was weighed and the weight was recorded. The camera in the chamber was properly aligned to give a full view of the chamber and started taping on Day 0. On Day 1, 24 hours after the start of taping on Day 0, each of the two litter boxes in the chamber was weighed and the weight was recorded. On Day 2, 48 hours after the start of taping on Day 0, each of the two litter boxes in the chamber was again weighed. Litter can be disposed of after weighing on Day 2, and the camera was then turned off. The weights of the litter boxes over the 48 hours were used to determine whether the litter was used or not, and at which preference level.\nThe data were expressed as both a percentage preference (% of the cats using the treated litter in each treatment group) and by the weight of the litter (the litter gets heavier as it is soiled). It was expected that if the added pheromone had no effect on litter preference, 50% of the cats would use the treated litter and 50% would use the control litter. […] Further, the weight difference between a control litter or litter under treatment was used to show the relative strength of the effect of a particular treatment on cat's litter use behavior. During the study, some cats (N=3; 2 in CAT+RP and 1 in RP) spilled their litter and their data were unreliable and were not included."}, "cats [2]": {"tested_on": "cats", "assay": "Study 3: 24-hour behavior of the most aggressive intact male cat pairs, CON litter versus RP litter", "assay_type": "in vivo", "protocol": "During the studies, cat behavior was captured on video for the duration of the 24- or 48-hour period depending on the specific study. Red lights were used at night to allow for continuous observation. A scan sampling method was used to record cat behaviors each 5 minutes. The recorded videos were subsequently reviewed and analyzed in each 5-minute scan sample, with tape playing 30 frames per second. At each 5-minute time point, each cat was categorized as anxious or relaxed. Aggression or litter box usage occurred between 5-minute periods were also noted. Because each scan sample is of 5-minute period, a total of 24 observations for each individual behavior are possible for each 2 hours. The instances of an individual behavior (An; n=1, 2, 3, . . . 24) in each 5-minute period were totaled for instances in each 2 hours (Bm=ΣAn, n=1, 2, 3, . . . 24; m=1, 2, 3, . . . 12) over 24 hours. The behavioral score for each 2-hour period is ΣAn/24 (n=1, 2, 3, . . . , 24). A behavioral score for a 24-hour period is ΣBm/12 (m=1, 2, 3, . . . 12). Among all behavior assessed, aggression, in-litter-box and anxiety were scored as yes or no during each 5 minutes (An=1 or 0; n=1, 2, 3, . . . 24). In addition, anxiety was measured as a percentage of the total time that the cat was experiencing anxiety. As such the anxiety related behavioral score for a 24-hour period is 0.347×ΣBm (%) (Bm=ΣAn(%), n=1, 2, 3, . . . 24; m=1, 2, 3, . . . 12), which reflects the percentage of time over 24 hours that the cats are experiencing anxiety. Moreover, when ranking cat pairs based on their level of aggression, the sum of the aggression scores of the individual cats in the pair was used to rank the cat pairs. Behavior data (behavioral scores) were further analyzed by Least Squares Analysis of variance using SAS (2011, SAS Inst., Inc., Cary, N.C.) software and the p-diff general linear model procedures to assess treatment differences within each time period. This statistical model included effects of treatment (TRT), cat-pair within treatment (TRT*CAT), time (HR), treatment by time (TRT*HR) and residual error (SE; used to test remaining effects). The most aggressive eight pairs of intact male cats from study 2 (Table, the pairs ranked 1 and 2-9) were selected for this 24-hour study, which was designed to assess if and how 2-methylbut-2-enal containing cat litter affects the multiple cats placed in one single room. Between studies 2 and 3, cat pairs had been separated for at least 12 weeks. Control (CON) litter and rabbit pheromone (RP) litter were similarly prepared as illustrated in Study 2. Each pair of cats was placed in a kennel containing one food dish, one water dish, and one litter box. Food and water was available ad libitum during the study. […] Side fences were chain linked. A total of 4 kennels were placed in one single room, and two rooms were utilized for eight pairs of cats. Cat behaviors were captured on video for the duration of the 24-hour period. Red lights were used at night to allow for continuous observation. The study schedule was as follows: • (1) 0 hour—Add 3 lb. aliquot of CON litter to a clean litter box and weigh the litter box; place a CON litter box in each of the 4 kennels in Room One. Before placing a designated cat pair in each of the kennels, weigh the cats. Start the video taping. • (2) 0 hour—Add 3 lb. aliquot of RP litter to a clean litter box and weigh; place RP litter boxes in 4 kennels in a separate Room Two; weigh cats; place designated pairs in kennels; and start the video taping. • (3) 24-hour—Remove and weigh all litter boxes; weigh all cats. Video records were obtained and reviewed for summary and analyses. At the 24-hour point of time, it was noted if any soiling had occurred outside of the litter box. Any social behavioral problems of the cats were also manually recorded, despite that video records provided a much more precise record of cat behaviors. Cat behavior of each pair was captured on video for the duration of the 24-hour period. […]"}, "[3]": {"conditions": "treated versus control litter weight after 2 days"}}, "data": [{"smiles": "C/C=C(\\C)C=O", "note": "[RP, 2-methylbut-2-enal]", "values": [{"measurement": "increase of litter attraction", "setting": "cats [1]; 7 out of 9 cats chose treated litter", "result": "more than 3.5 times"}, {"measurement": "percentage preference (% of the cats using the treated litter)", "setting": "cats [1]; litter treated at 10 μg/3-lb (7.3 μg/kg), choice against control litter over 48 hours, 50% = no effect", "result": 78, "unit": "%"}, {"measurement": "Litter Type Use, g, TRT (weights of litter after 2 days)", "setting": "cats [1]; treated litter box, 10 μg/3-lb, SE = 0.023", "result": 0.76, "unit": "g"}, {"measurement": "Relative Difference, %", "setting": "cats [1]; [3]", "result": 138, "unit": "%"}, {"measurement": "Significantly Different", "setting": "cats [1]; [3]", "result": "Yes"}, {"measurement": "effect on cats' litter preference", "setting": "cats [1]; treated versus control litter, 48 hours", "result": "highly preferred over the control litter"}, {"measurement": "aggression away from litter box, % of the observations", "setting": "cats [2]; 0-2 hour period, CON litter 25%, P<0.01", "result": "5-6%"}, {"measurement": "aggression near litter box, % of the observations", "setting": "cats [2]; 0-2 hour period, CON litter more than 40%, P<0.01", "result": "2-3%"}, {"measurement": "aggression away from litter box, % of the observations", "setting": "cats [2]; 2-4 hour period, CON litter 23-24%, P<0.01", "result": 4, "unit": "%"}, {"measurement": "lying/sitting - touching versus CON litter", "setting": "cats [2]; 6-8 hour period, P=0.07", "result": "tendency to sit or lie in contact"}, {"measurement": "anxiety versus CON litter", "setting": "cats [2]; 8-10 hour period, P=0.06", "result": "tendency to be more anxious"}, {"measurement": "litter box use versus CON litter", "setting": "cats [2]; 8-10 hour period, P=0.10", "result": "tended to use the litter box more often"}, {"measurement": "anxiety versus CON litter", "setting": "cats [2]; 10-12 hour period, P<0.01", "result": "significantly more anxious"}, {"measurement": "neutral social interaction versus CON litter", "setting": "cats [2]; 10-12 hour period, P<0.01", "result": "significantly more neutral (non-aggressive) social interactions"}, {"measurement": "litter box use versus CON litter", "setting": "cats [2]; 12-14 hour period, P<0.01", "result": "Cats experiencing CON litter used the litter box significantly more"}, {"measurement": "anxiety versus CON litter", "setting": "cats [2]; 14-16 hour period, P=0.01", "result": "significantly more anxious"}, {"measurement": "anxiety versus CON litter", "setting": "cats [2]; 16-18 hour period, P=0.03", "result": "significantly more anxious"}, {"measurement": "lying/sitting - touching versus CON litter", "setting": "cats [2]; 16-18 hour period, P=0.05", "result": "tended to sit or lie in contact less"}, {"measurement": "anxiety versus CON litter", "setting": "cats [2]; 18-20 hour period, P=0.03", "result": "significantly more anxious"}, {"measurement": "litter box use versus CON litter", "setting": "cats [2]; 18-20 hour period, P=0.03", "result": "Cats experiencing CON litter used the litter box significantly more"}, {"measurement": "lying/sitting - touching versus CON litter", "setting": "cats [2]; 20-22 hour period, P=0.01", "result": "significantly higher"}, {"measurement": "lying/sitting - touching versus CON litter", "setting": "cats [2]; 22-24 hr period, P=0.04", "result": "tended to sit or lie in contact less"}, {"measurement": "duration of aggression control", "setting": "cats [2]; RP in the litter around 0.0004% to 0.0006% (w/w)", "result": "6 to 8", "unit": "h"}, {"measurement": "Behavior score: Head in food/H2O dish", "setting": "cats [2]; RP litter (3% (w/w) beads with 0.02% (w/w) 2-methylbut-2-enal), 24 hours, 4 cat pairs, CON 0.85, TRT P-Value 0.16", "result": 0.57}, {"measurement": "Behavior score: Grooming other", "setting": "cats [2]; RP litter, 24 hours, 4 cat pairs, CON 0.03, TRT P-Value 0.36", "result": 0.00}, {"measurement": "Behavior score: Neutral social interaction", "setting": "cats [2]; RP litter, 24 hours, 4 cat pairs, CON 0.10, TRT P-Value 0.82", "result": 0.14}, {"measurement": "Behavior score: In litter box - using", "setting": "cats [2]; RP litter, 24 hours, 4 cat pairs, CON 0.31, TRT P-Value 0.23", "result": 0.20}, {"measurement": "Behavior score: Grooming self", "setting": "cats [2]; RP litter, 24 hours, 4 cat pairs, CON 0.56, TRT P-Value 0.90", "result": 0.52}, {"measurement": "Behavior score: Lying/sitting - touching", "setting": "cats [2]; RP litter, 24 hours, 4 cat pairs, CON 0.73, TRT P-Value 0.92", "result": 0.64}, {"measurement": "Behavior score: Play", "setting": "cats [2]; RP litter, 24 hours, 4 cat pairs, CON 0.84, TRT P-Value 0.89", "result": 0.92}, {"measurement": "Behavior score: Sleeping", "setting": "cats [2]; RP litter, 24 hours, 4 cat pairs, CON 0.95, TRT P-Value 0.59", "result": 0.63}, {"measurement": "Behavior score: In litter box - not using", "setting": "cats [2]; RP litter, 24 hours, 4 cat pairs, CON 1.63, TRT P-Value 0.74", "result": 2.34}, {"measurement": "Behavior score: Aggression", "setting": "cats [2]; RP litter, 24 hours, 4 cat pairs, CON 3.55, TRT P-Value 0.37", "result": 2.01}, {"measurement": "Behavior score: Locomotion", "setting": "cats [2]; RP litter, 24 hours, 4 cat pairs, CON 5.50, TRT P-Value 0.52", "result": 4.34}, {"measurement": "Behavior score: Lying/sitting - not touching", "setting": "cats [2]; RP litter, 24 hours, 4 cat pairs, CON 14.98, TRT P-Value 0.79", "result": 15.53}, {"measurement": "Behavior score: Anxiety (%)", "setting": "cats [2]; RP litter, 24 hours, 4 cat pairs, CON 17.00, TRT P-Value 0.56", "result": 25.00, "unit": "%"}, {"measurement": "weight added to litter box", "setting": "cats [2]; RP litter, CON cats 0.15 kg, SE=0.02 kg, change not significant, litter spilled", "result": 0.07, "unit": "kg/day"}, {"measurement": "overall RP treatment effect on behaviors over the full 24 hours", "setting": "cats [2]; RP versus CON litter, all behaviors of Table 10", "result": "None of the behaviors evaluated over the full 24 hours were significantly changed"}, {"measurement": "anxiety versus CON litter", "setting": "cats [2]; first 2 hour period, P=0.04", "result": "significantly less anxious"}, {"measurement": "aggression patterns versus CON litter", "setting": "cats [2]; first 6 hours after cats were placed together, P<0.01", "result": "significantly lower"}]}]}
